Assay results published in ChEMBL document CHEMBL1649203, “Pharmacokinetics and safety of famciclovir in children with herpes simplex or varicella-zoster virus infection” (Antimicrob Agents Chemother, 2009).

Experiments:
Homo sapiens [1] = experiment: Toxicity in HSV-infected 6 to <=12 years aged pediatric patient assessed as incidence of headache at 23.5 mg/kg, po bid; type: organism-based; design: dose 23.5 mg/kg, route oral; settings: in vivo
Homo sapiens [2] = experiment: Toxicity in orally dosed VZV-infected patient assessed as at least one adverse event administered as tid; type: organism-based; settings: in vivo, po
Homo sapiens [3] = experiment: Toxicity in VZV-infected 2 to <6 years aged pediatric patient assessed as incidence of headache at 40.6 mg/kg, po tid; type: organism-based; design: dose 40.6 mg/kg, route oral; settings: in vivo
Homo sapiens [4] = experiment: Toxicity in VZV-infected 6 to <=12 years aged pediatric patient assessed as at least one adverse event at 35.5 mg/kg, po tid; type: organism-based; design: dose 35.5 mg/kg, route oral; settings: in vivo
Homo sapiens [5] = experiment: Toxicity in VZV-infected 2 to <6 years aged pediatric patient assessed as incidence of nausea at 40.6 mg/kg, po tid; type: organism-based; design: dose 40.6 mg/kg, route oral; settings: in vivo
Homo sapiens [6] = experiment: Toxicity in orally dosed HSV-infected patient assessed as at least one adverse event administered as bid; type: organism-based; settings: in vivo, po
Homo sapiens [7] = experiment: Toxicity in HSV-infected 1 to <2 years aged pediatric patient assessed as incidence of abdominal pain at 30.9 mg/kg, po bid; type: organism-based, Abdomen; design: dose 30.9 mg/kg, route oral; settings: in vivo
Homo sapiens [8] = experiment: Toxicity in orally dosed VZV-infected patient assessed as incidence of vomiting administered as tid; type: organism-based; settings: in vivo, po
Homo sapiens [9] = experiment: Toxicity in orally dosed HSV-infected patient assessed as pyrexia administered as bid; type: organism-based; settings: in vivo, po
Homo sapiens [10] = experiment: Toxicity in orally dosed HSV-infected patient assessed as incidence of vomiting administered as bid; type: organism-based; settings: in vivo, po
[11] = Cmax in 2 to <6 years aged pediatric patient administered as single dose; type: ADME, organism-based; settings: human, in vivo
Homo sapiens [12] = experiment: Toxicity in VZV-infected 1 to <2 years aged pediatric patient assessed as incidence of cellulitis at 40.8 mg/kg, po tid; type: organism-based; design: dose 40.8 mg/kg, route oral; settings: in vivo
Homo sapiens [13] = experiment: Toxicity in VZV-infected 2 to <6 years aged pediatric patient assessed as pyrexia at 40.6 mg/kg, po tid; type: organism-based; design: dose 40.6 mg/kg, route oral; settings: in vivo
Homo sapiens [14] = experiment: Toxicity in VZV-infected 2 to <6 years aged pediatric patient assessed as at least one adverse event at 40.6 mg/kg, po tid; type: organism-based; design: dose 40.6 mg/kg, route oral; settings: in vivo
Homo sapiens [15] = experiment: Toxicity in HSV-infected 6 to <=12 years aged pediatric patient assessed as at least one adverse event at 23.5 mg/kg, po bid; type: organism-based; design: dose 23.5 mg/kg, route oral; settings: in vivo
Homo sapiens [16] = experiment: Toxicity in HSV-infected 6 to <=12 years aged pediatric patient assessed as incidence of vomiting at 23.5 mg/kg, po bid; type: organism-based; design: dose 23.5 mg/kg, route oral; settings: in vivo
Homo sapiens [17] = experiment: Toxicity in HSV-infected 6 to <=12 years aged pediatric patient assessed as incidence of abdominal pain at 23.5 mg/kg, po bid; type: organism-based, Abdomen; design: dose 23.5 mg/kg, route oral; settings: in vivo
Homo sapiens [18] = experiment: Toxicity in VZV-infected 2 to <6 years aged pediatric patient assessed as incidence of cellulitis at 40.6 mg/kg, po tid; type: organism-based; design: dose 40.6 mg/kg, route oral; settings: in vivo
Homo sapiens [19] = experiment: Toxicity in HSV-infected 2 to <6 years aged pediatric patient assessed as pyrexia at 27.6 mg/kg, po bid; type: organism-based; design: dose 27.6 mg/kg, route oral; settings: in vivo
Homo sapiens [20] = experiment: Toxicity in VZV-infected 1 to <2 years aged pediatric patient assessed as incidence of vomiting at 40.8 mg/kg, po tid; type: organism-based; design: dose 40.8 mg/kg, route oral; settings: in vivo
Homo sapiens [21] = experiment: Toxicity in orally dosed VZV-infected patient assessed as incidence of abdominal pain administered as tid; type: organism-based, Abdomen; settings: in vivo, po
Homo sapiens [22] = experiment: Toxicity in HSV-infected 2 to <6 years aged pediatric patient assessed as incidence of vomiting at 27.6 mg/kg, po bid; type: organism-based; design: dose 27.6 mg/kg, route oral; settings: in vivo
Homo sapiens [23] = experiment: Toxicity in orally dosed HSV-infected patient assessed as incidence of nausea administered as bid; type: organism-based; settings: in vivo, po
Homo sapiens [24] = experiment: AUC (0 to infinity) in 6 to <=12 years aged pediatric patient administered as single dose; type: ADME, organism-based, Plasma; design: time infinity; settings: in vivo
Homo sapiens [25] = experiment: Toxicity in VZV-infected 1 to <2 years aged pediatric patient assessed as incidence of pruritus at 40.8 mg/kg, po tid; type: organism-based; design: dose 40.8 mg/kg, route oral; settings: in vivo
Homo sapiens [26] = experiment: Toxicity in VZV-infected 1 to <2 years aged pediatric patient assessed as pyrexia at 40.8 mg/kg, po tid; type: organism-based; design: dose 40.8 mg/kg, route oral; settings: in vivo
[27] = Apparent oral clearance in 2 to <6 years aged pediatric patient administered as single dose; type: ADME, organism-based; settings: human, in vivo
Homo sapiens [28] = experiment: Toxicity in VZV-infected 2 to <6 years aged pediatric patient assessed as incidence of diarrhea at 40.6 mg/kg, po tid; type: organism-based; design: dose 40.6 mg/kg, route oral; settings: in vivo
Homo sapiens [29] = experiment: Toxicity in HSV-infected 6 to <=12 years aged pediatric patient assessed as incidence of cough at 23.5 mg/kg, po bid; type: organism-based; design: dose 23.5 mg/kg, route oral; settings: in vivo
Homo sapiens [30] = experiment: Toxicity in VZV-infected 2 to <6 years aged pediatric patient assessed as incidence of abdominal pain at 40.6 mg/kg, po tid; type: organism-based, Abdomen; design: dose 40.6 mg/kg, route oral; settings: in vivo
Homo sapiens [31] = experiment: Toxicity in HSV-infected 6 to <=12 years aged pediatric patient assessed as pyrexia at 23.5 mg/kg, po bid; type: organism-based; design: dose 23.5 mg/kg, route oral; settings: in vivo
Homo sapiens [32] = experiment: Toxicity in orally dosed VZV-infected patient assessed as incidence of nausea administered as tid; type: organism-based; settings: in vivo, po
Homo sapiens [33] = experiment: Toxicity in HSV-infected 6 to <=12 years aged pediatric patient assessed as incidence of diarrhea at 23.5 mg/kg, po bid; type: organism-based; design: dose 23.5 mg/kg, route oral; settings: in vivo
Homo sapiens [34] = experiment: Toxicity in HSV-infected 1 to <2 years aged pediatric patient assessed as at least one adverse event at 30.9 mg/kg, po bid; type: organism-based; design: dose 30.9 mg/kg, route oral; settings: in vivo
Homo sapiens [35] = experiment: Toxicity in orally dosed HSV-infected patient assessed as incidence of abdominal pain administered as bid; type: organism-based, Abdomen; settings: in vivo, po

## Nc1nc2c(ncn2CCC(CO)CO)c(=O)[nH]1 [PENCICLOVIR]
Homo sapiens [1]
  Activity: 22.2%
Homo sapiens [2]
  Activity: 45.3%
Homo sapiens [3]
  Activity: 0%
Homo sapiens [4]
  Activity: 43.8%
Homo sapiens [5]
  Activity: 5.3%
Homo sapiens [6]
  Activity: 55.3%
Homo sapiens [7]
  Activity: 0%
Homo sapiens [8]
  Activity: 9.4%
Homo sapiens [9]
  Activity: 4.3%
Homo sapiens [10]
  Activity: 10.6%
[11]
  Cmax: 2780 ng/mL
Homo sapiens [12]
  Activity: 0%
Homo sapiens [13]
  Activity: 5.3%
Homo sapiens [14]
  Activity: 52.6%
Homo sapiens [15]
  Activity: 66.7%
Homo sapiens [16]
  Activity: 11.1%
Homo sapiens [17]
  Activity: 5.6%
Homo sapiens [18]
  Activity: 5.3%
Homo sapiens [19]
  Activity: 0%
Homo sapiens [20]
  Activity: 27.8%
Homo sapiens [21]
  Activity: 3.8%
Homo sapiens [22]
  Activity: 6.3%
Homo sapiens [23]
  Activity: 6.4%
Homo sapiens [24]
  AUC: 9.33 ug/hr.ml
Homo sapiens [25]
  Activity: 5.6%
Homo sapiens [26]
  Activity: 11.1%
[27]
  CL/F: 410 mL/min
Homo sapiens [28]
  Activity: 5.3%
Homo sapiens [29]
  Activity: 5.6%
Homo sapiens [30]
  Activity: 0%
Homo sapiens [31]
  Activity: 0%
Homo sapiens [32]
  Activity: 3.8%
Homo sapiens [33]
  Activity: 11.1%
Homo sapiens [34]
  Activity: 42.2%
Homo sapiens [35]
  Activity: 4.3%
